Results on 40 molecules are retold here after patent US7829665B2 (priority 2005, dated 2010).

Structures are written as SMILES.

T1 sequence (P27958 1027-1657): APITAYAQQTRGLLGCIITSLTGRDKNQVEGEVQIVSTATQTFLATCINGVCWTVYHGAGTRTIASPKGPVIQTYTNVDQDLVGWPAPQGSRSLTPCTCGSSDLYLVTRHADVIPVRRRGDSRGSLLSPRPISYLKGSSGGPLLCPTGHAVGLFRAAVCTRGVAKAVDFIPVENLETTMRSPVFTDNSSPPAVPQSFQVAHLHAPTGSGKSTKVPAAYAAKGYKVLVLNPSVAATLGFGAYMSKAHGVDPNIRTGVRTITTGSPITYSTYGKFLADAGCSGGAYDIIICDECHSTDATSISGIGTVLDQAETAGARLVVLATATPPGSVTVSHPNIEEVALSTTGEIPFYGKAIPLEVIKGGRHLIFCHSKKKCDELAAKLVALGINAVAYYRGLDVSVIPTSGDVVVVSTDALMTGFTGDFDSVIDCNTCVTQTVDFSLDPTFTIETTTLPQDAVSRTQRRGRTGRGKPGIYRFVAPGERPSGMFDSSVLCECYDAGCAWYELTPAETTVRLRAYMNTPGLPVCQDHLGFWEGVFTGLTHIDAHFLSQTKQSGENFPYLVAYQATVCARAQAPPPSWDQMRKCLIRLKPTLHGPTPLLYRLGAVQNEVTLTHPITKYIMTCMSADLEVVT

The first test addresses T1, full-length NS3/NS4A-2 (HCV NS3 protease) (Hepatitis C virus genotype 1a, UniProt P27958).
T1 construct: Recombinant E. coli or Baculovirus full-length NS3 was diluted to 3.33 μM with assay buffer; made in house; host or cells: E. coli or baculovirus (BV) expression system
Put plainly: NS3-NS4 protease assay / NS3 inhibition assay (RETS1 substrate, fluorescence kinetic read). Conditions: Table 22; read-out: NS3-NS4 IC50. Type of test: biochemical. Put shortly: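 Ki values come from IC50 fits corrected via Ki=IC50/(1+[S]/Km), with Km 2.03 μM for E. coli and 1.74 μM for baculovirus full-length NS3. Enzyme (2 or 3 nM NS3, respectively, complexed with NS4A-2) sat with compound, top concentration 50 microM, for 10 min at room temperature. Cleavage of RETS1 (8 μM working solution) was then followed by fluorescence (335/495 nm) over 30 min.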
The IC50 is the concentration that gives 50% inhibition. As to `CC(C)(C)OC(=O)N[C@H]1CCCCC/C=C\[C@@H]2C[C@@]2(C(=O)NC2CC2)NC(=O)[C@@H]2CCCN2C1=O` [Compound 2318], the 50% inhibitory concentration (IC50) was under 1 µM.
As to `Cc1ccc(NC(=O)[C@@]23C[C@H]2/C=C\CCCCC[C@H](NC(=O)OC(C)(C)C)C(=O)N2CCC[C@H]2C(=O)N3)cc1` [Compound 2316], the IC50 was under 1 µM.
The same measure, in the same setting: in the case of `CC(C)(C)OC(=O)N[C@H]1CCCCC/C=C\[C@@H]2C[C@@]2(C(=O)Nc2cccc(Cl)c2)NC(=O)[C@@H]2CCCN2C1=O` [Compound 2317] it was under 1 µM.

The test is the same for the next values; noted with them: Table 25; read-out: NS3-NS4 IC50.
As for `CC(C)(C)OC(=O)N[C@H]1CCCCC/C=C\[C@@H]2C[C@@]2(C(=O)N[S@+]([O-])C(C)(C)C)NC(=O)[C@@H]2C[C@@H](OC(=O)N3Cc4ccccc4C3)CN2C1=O` [Compound 2604], the IC50 is over 10 µM.

The same test, now with this note: recombinant E. coli or Baculovirus full-length NS3 with NS4A-2; read-out: NS3-NS4 IC50.
Turning to `COC[C@@H]1CCCN1S(=O)(=O)NC(=O)[C@@]12C[C@H]1/C=C\CCCCC[C@H](NC(=O)OC(C)(C)C)C(=O)N1CCC[C@H]1C(=O)N2` [Compound 2252], the 50% inhibitory concentration (IC50) is under 1 µM.
As for `C[C@@H](NC(=O)O[C@@H]1C[C@H]2C(=O)N[C@]3(C(=O)O)C[C@H]3/C=C\CCCCC[C@H](NC(=O)OC(C)(C)C)C(=O)N2C1)c1ccc(F)cn1` [Compound 148], the IC50 is over 10 µM.
On the same count and under the same terms, in the case of `CC(C)(C)OC(=O)N[C@H]1CCCCC/C=C\[C@@H]2C[C@@]2(C(=O)NS(=O)(=O)NCCc2ccccc2)NC(=O)[C@@H]2CCCN2C1=O` [Compound 2228] it was under 10 µM; in that of `O=C(N[C@H]1CCCCC/C=C\[C@@H]2C[C@@]2(C(=O)NS(=O)(=O)C2CC2)NC(=O)[C@@H]2CCCN2C1=O)OC1CCCC1` [Compound 312], under 1 µM; in that of `CC(C)(C)OC(=O)N[C@H]1CCCCC/C=C\[C@@H]2C[C@@]2(C(=O)NS(=O)(=O)c2cccc(F)c2)NC(=O)[C@@H]2CCCN2C1=O` [Compound 2113], under 10 µM.
Take `CC(C)C[C@@H]1C[C@H]2C(=O)N[C@]3(C(=O)NS(=O)(=O)C4CC4)C[C@H]3/C=C\CCCCC[C@H](NC(=O)OC(C)(C)C)C(=O)N2C1` [Compound 2147, (1S,4R,6S,14S,18R)-tert-Butyl 4-cyclopropylsulfonylaminocarbonyl-2,15-dioxo-3,16-diaza-18-(2-methylpropyl)-tricyclo[14.3.0.0^4,6]nonadec-7-ene-14-yl carbamate]: the IC50 is over 10 µM.
In the case of `O=C(N[C@H]1CCCCC/C=C\[C@@H]2C[C@@]2(C(=O)NS(=O)(=O)c2ccccc2)NC(=O)C2Cc3cc(Oc4cccc(Cl)c4)ccc3CN2C1=O)OC1CCCC1` (stereo partly drawn) [Compound 2004, Cyclopentyl (1aS,9S,19aR,Z)-15-(3-chlorophenoxy)-10,18-dioxo-19a-(phenylsulfonylcarbamoyl)-1a,4,5,6,7,8,9,10,12,17,17a,18,19,19a-tetradecahydro-1H-11,14-diaza-bicyclo[13.1.0]hexadeca-1(15), 2-dieno[11,12-b]isoquinolin-9-ylcarbamate], the IC50 is under 1 µM.
The same measure, in the same setting: with `CC(C)(C)OC(=O)N[C@H]1CCCCC/C=C\[C@@H]2C[C@@]2(C(=O)NS(=O)(=O)c2c(Cl)cc(Cl)cc2Cl)NC(=O)[C@@H]2CCCN2C1=O` [Compound 2115] the figure was under 0.1 µM.
On the same count and under the same terms, with `CC(C)(C)OC(=O)N[C@H]1CCCCC/C=C\[C@@H]2C[C@@]2(C(=O)NS(=O)(=O)c2ccc(F)cc2)NC(=O)[C@@H]2CCCN2C1=O` [Compound 2114] the figure was under 10 µM; with `Cc1ccc([S@@+]([O-])NC(=O)[C@@]23C[C@H]2/C=C\CCCCC[C@H](NC(=O)OC(C)(C)C)C(=O)N2CCC[C@H]2C(=O)N3)cc1` [Compound 2403], under 1 µM.
Same read-out and setting: in the case of `CC(C)(C)OC(=O)NC1CCCCCCCC=CC2CC2(C(=O)NS(=O)(=O)c2ccc([N+](=O)[O-])cc2)NC(=O)C2CCCN2C1=O` (stereo not shown) [Compound 2102] it was under 10 µM.
`CC(C)(C)OC(=O)N[C@H]1CCCCC/C=C\[C@@H]2C[C@@]2(C(=O)NS(=O)(=O)N2CCOCC2)NC(=O)[C@@H]2CCCN2C1=O` [Compound 2204]: the IC50 was under 1 µM.
Still for that read-out and setting: in the case of `CC(C)(C)OC(=O)N[C@H]1CCCCC/C=C\[C@@H]2C[C@@]2(C(=O)NS(=O)(=O)Cc2ccccc2Cl)NC(=O)[C@@H]2CCCN2C1=O` [Compound 2117] it was under 1 µM; in that of `CC(C)(C)OC(=O)N[C@H]1CCCCC/C=C\[C@@H]2C[C@@]2(C(=O)NS(=O)(=O)NC2CC2)NC(=O)[C@@H]2CCCN2C1=O` [Compound 2201], under 1 µM.
For the molecule `O=C(N[C@H]1CCCCCCC[C@@H]2C[C@@]2(C(=O)NS(=O)(=O)c2ccccc2)NC(=O)C2Cc3cc(Oc4cccc(Cl)c4)ccc3CN2C1=O)OC1CCCC1` (stereo partly drawn) [Compound 2010, Cyclopentyl (1aR,9S,19aR)-15-(3-chlorophenoxy)-10,18-dioxo-19a-(phenylsulfonylcarbamoyl)-1a,2,3,4,5,6,7,8,9,10,12,17,17a,18,19,19a-hexadecahydro-1H-2,5-diaza-bicyclo[13.1.0]hexadec-1(15)-eno[5,4-b]isoquinolin-9-ylcarbamate], the half-maximal inhibitory concentration (IC50) was under 10 µM.
Still for that read-out and setting: in the case of `CC(C)S(=O)(=O)NC(=O)[C@@]12C[C@H]1/C=C\CCCCC[C@H](NC(=O)OC1CCCC1)C(=O)N1C[C@H](OC(=O)N3CCc4ccccc4C3)C[C@H]1C(=O)N2` [Compound 118] it was under 0.1 µM.
With `CC(C)(C)OC(=O)N[C@H]1CCCCC/C=C\[C@@H]2C[C@@]2(C(=O)NS(=O)(=O)NC2CCCCC2)NC(=O)[C@@H]2CCCN2C1=O` [Compound 2205], the half-inhibitory concentration (IC50) is under 1 µM.
In the case of `COc1ccc(S(=O)(=O)NC(=O)[C@@]23C[C@H]2/C=C\CCCCC[C@H](NC(=O)OC2CCCC2)C(=O)N2C[C@H](OC(=O)N4CCc5ccccc5C4)C[C@H]2C(=O)N3)cc1` [Compound 120], the IC50 was under 0.1 µM.
On to `CC(=O)N[C@H]1CCCCC/C=C\[C@@H]2C[C@@]2(C(=O)NS(=O)(=O)C2CC2)NC(=O)[C@@H]2CCCN2C1=O` [Compound 316], for which the half-inhibitory concentration (IC50) is under 10 µM.
For the molecule `CC(C)(C)C(O)C(=O)N[C@H]1CCCCC/C=C\[C@@H]2C[C@@]2(C(=O)NS(=O)(=O)C2CC2)NC(=O)[C@@H]2C[C@@H](OC(=O)N3Cc4cccc(F)c4C3)CN2C1=O` (single isomer, unassigned) [Compound 248], the IC50 was under 0.1 µM.
Still for that read-out and setting: with `CC(C)(C)OC(=O)N[C@H]1CCCCC/C=C\[C@@H]2C[C@@]2(C(=O)NS(=O)(=O)c2cccc(Cl)c2F)NC(=O)[C@@H]2CCCN2C1=O` [Compound 2151] the figure was under 1 µM; with `CCOC(=O)[C@@]12C[C@H]1/C=C\CCCCC[C@H](Nc1c(N3CCC3)c(=O)c1=O)C(=O)N1C[C@H](OC(=O)N3Cc4cccc(F)c4C3)C[C@H]1C(=O)N2` [Compound 645], under 0.1 µM.
Same read-out and setting: in the case of `O=C(N[C@H]1CCCCC/C=C\[C@@H]2C[C@@]2(C(=O)O)NC(=O)[C@@H]2CCCN2C1=O)C1CC1` [Compound 315] it was under 10 µM; in that of `CC(C)(C)OC(=O)N[C@H]1CCCCC/C=C\[C@@H]2C[C@@]2(C(=O)NS(=O)(=O)Nc2ccc(C#N)cc2)NC(=O)[C@@H]2CCCN2C1=O` [Compound 2241], under 1 µM.
In the case of `CN(c1ccc(Cl)cc1)S(=O)(=O)NC(=O)[C@@]12C[C@H]1/C=C\CCCCC[C@H](NC(=O)OC(C)(C)C)C(=O)N1CCC[C@H]1C(=O)N2` [Compound 2226], the half-maximal inhibitory concentration (IC50) was under 10 µM.
For the molecule `CC(C)(C)OC(=O)N[C@H]1CCCCC/C=C\[C@@H]2C[C@@]2(C(=O)NS(=O)(=O)NCCc2ccc(Cl)cc2)NC(=O)[C@@H]2CCCN2C1=O` [Compound 403], the IC50 is under 10 µM.
The same measure, in the same setting: in the case of `CCCS(=O)(=O)NC(=O)C12CC1C=CCCCCCCCC(NC(=O)OC(C)(C)C)C(=O)N1CCCC1C(=O)N2` (stereo not shown) [Compound 2105] it was under 1 µM.
Consider `CC(C)(C)OC(=O)N[C@H]1CCCCC/C=C\[C@@H]2C[C@@]2(C(=O)NS(=O)(=O)C2CC2)NC(=O)C2Cc3ccccc3CN2C1=O` (stereo partly drawn) [Compound 2009, tert-Butyl (1aS,9S,19aR,Z)-19a-(cyclopropylsulfonylcarbamoyl)-10,18-dioxo-1a,4,5,6,7,8,9,10,12,17,17a,18,19,19a-tetradecahydro-1H-11,14-diaza-bicyclo[13.1.0]hexadeca-1(15),2-dieno[11,12-b]isoquinolin-9-ylcarbamate], for which the IC50 is under 10 µM.
Consider `CC(C)C(C(C)C)S(=O)(=O)NC(=O)[C@@]12C[C@H]1/C=C\CCCCC[C@H](NC(=O)OC(C)(C)C)C(=O)N1CCC[C@H]1C(=O)N2` [Compound 2209], for which the IC50 was under 1 µM.
Still for that read-out and setting: in the case of `COc1ccc(CCNS(=O)(=O)NC(=O)[C@@]23C[C@H]2/C=C\CCCCC[C@H](NC(=O)OC(C)(C)C)C(=O)N2CCC[C@H]2C(=O)N3)cc1` [Compound 413] it was over 10 µM; in that of `CC(C)(C)OC(=O)N[C@H]1CCCCC/C=C\[C@@H]2C[C@@]2(C(=O)NS(=O)(=O)c2ccccc2F)NC(=O)[C@@H]2CCCN2C1=O` [Compound 2124], under 10 µM.
Same read-out and setting: in the case of `CC(C)(C)OC(=O)N[C@H]1CCCCC/C=C\[C@@H]2C[C@@]2(C(=O)NS(=O)(=O)Nc2ccc(Cl)cc2Cl)NC(=O)[C@@H]2CCCN2C1=O` [Compound 410] it was over 10 µM.
Same read-out and setting: in the case of `COc1ccccc1NS(=O)(=O)NC(=O)[C@@]12C[C@H]1/C=C\CCCCC[C@H](NC(=O)OC(C)(C)C)C(=O)N1CCC[C@H]1C(=O)N2` [Compound 2236] it was under 1 µM; in that of `C=CCC1(S(=O)(=O)NC(=O)[C@@]23C[C@H]2/C=C\CCCCC[C@H](NC(=O)OC(C)(C)C)C(=O)N2CCC[C@H]2C(=O)N3)CC1` [Compound 305], under 10 µM.
Turning to `COc1c(C(=O)O)csc1S(=O)(=O)NC(=O)[C@@]12C[C@H]1/C=C\CCCCC[C@H](NC(=O)OC(C)(C)C)C(=O)N1CCC[C@H]1C(=O)N2` [Compound 311], the concentration for half-maximal inhibition (IC50) is under 10 µM.
On to `CCCC1(S(=O)(=O)NC(=O)[C@@]23C[C@H]2/C=C\CCCCC[C@H](NC(=O)OC(C)(C)C)C(=O)N2CCC[C@H]2C(=O)N3)CC1` [Compound 304], for which the IC50 was under 10 µM.
